The nature of this data set: Human HepG2 cell viability assay in 384 well format. Conditions: HepG2 cells, read-out: Inhibition. The format is toxicity, cell-based. Set-up: dose 125 nL, time 70.5 hour; cytotoxicity at 70.5 h: concentration not given beside the values.
Turning to `CN(Cc1cnn(C)c1)C(=O)NCCc1ccc2c(c1)OCCO2`, the cytotoxicity at 70.5 h is -2.65%.

As for `Cc1nc(C)c(CC(=O)N2C[C@H]3CC[C@@H]2CN(c2cnccn2)C3)s1`, the cytotoxicity at 70.5 h is -4.55%.

In the case of `Cc1cc(CN(C)C(=O)CN2CC3(CCNCC3)OC2=O)no1`, the cytotoxicity at 70.5 h is -15.9%.

As for `Cc1cc(C(=O)N2CCCC(c3noc(C)n3)C2)[nH]n1` (configuration not stated), the cytotoxicity at 70.5 h came to 34.4%.

With `CNc1cc2c(nn1)CCN(C(=O)c1cc(F)cc(F)c1)C2`, the cytotoxicity at 70.5 h was -10%.

Consider `Cn1c(=O)[nH]c(=O)n2c(CC(=O)NCc3ccccc3)cnc12`, for which the cytotoxicity at 70.5 h was -12.3%.

On to `CCOC(=O)N1CCCC2(CCN(Cc3ccccc3C#N)C2)C1` (configuration not stated), for which the cytotoxicity at 70.5 h is -6.46%.

Take `Cc1c[nH]nc1C1CCN(S(=O)(=O)N(C)C)C1` (configuration not stated): the cytotoxicity at 70.5 h was -8.85%.

Consider `CN(CCOCC(F)(F)F)CC1CCN(CCO)CC1`, for which the cytotoxicity at 70.5 h is 16.2%.

In the case of `CC(C)c1nnc(N2C[C@@H]3CC[C@H](C2)N(Cc2ccccc2)C3)s1`, the cytotoxicity at 70.5 h was -4.82%.

Turning to `CN(c1ncccc1CNS(=O)(=O)N1CCOCC1)C1CCCCC1`, the cytotoxicity at 70.5 h is 18.5%.

Take `CC(=O)Nc1ccc(-c2ccccc2NC(=O)CN)cc1`: the cytotoxicity at 70.5 h was 28.6%.

For `CN(Cc1ccc(C(N)=O)cc1)c1ccc(C(F)(F)F)cn1`, the cytotoxicity at 70.5 h was -2.07%.

As to `Cn1c(CNCC2CCCN2c2cccnn2)nc2ccccc21` (configuration not stated), the cytotoxicity at 70.5 h was -1.26%.

In the case of `CSc1ncccc1C(=O)N1CCC2(CC1)c1nc[nH]c1CCN2C`, the cytotoxicity at 70.5 h was determined as 7.45%.

In the case of `CC(=O)N(Cc1noc(C)n1)C1CCN(Cc2c(C)noc2C)C1` (configuration not stated), the cytotoxicity at 70.5 h was -0.736%.

On to `CCN(C)c1ncnc2c1CCN(S(=O)(=O)c1ccccc1)CC2`, for which the cytotoxicity at 70.5 h is -5.89%.

For the molecule `CSc1ncccc1C(=O)N1C[C@H]2CC[C@@H]1CN(C(=O)N(C)C)C2`, the cytotoxicity at 70.5 h is -7.79%.

In the case of `Cc1cc(OCC(N)=O)ccc1NC(=O)C(C)Cc1ccccc1F` (configuration not stated), the cytotoxicity at 70.5 h was -2.1%.

As for `COc1ccc(C(=O)NCc2ccco2)nn1`, the cytotoxicity at 70.5 h was -6.23%.

Regarding `CCOc1ccc(NC(=O)N2CCOC(C(N)=O)C2)cc1C` (configuration not stated), the cytotoxicity at 70.5 h came to 1.77%.

For `Cc1noc([C@@H]2C[C@H]3OCC[C@H]3N(Cc3sccc3C)C2)n1`, the cytotoxicity at 70.5 h stood at 4.03%.

Regarding `CS(=O)(=O)CCSc1nnc(Cc2ccccc2F)o1`, the cytotoxicity at 70.5 h was -1.57%.

On to `Cc1nonc1CC(=O)N1C[C@@H]2CC[C@H](C1)N(Cc1ccccc1)C2=O`, for which the cytotoxicity at 70.5 h was determined as 8.97%.

Regarding `Cc1cc(S(=O)(=O)Nc2onc(C)c2C)sc1C`, the cytotoxicity at 70.5 h is -5.02%.

Regarding `CCOc1ccc(Oc2cc(N)ccn2)cc1`, the cytotoxicity at 70.5 h was -4.03%.

Take `O=C1CCCN1C1CCCN(CCOc2ccc(F)cc2)C1` (configuration not stated): the cytotoxicity at 70.5 h is -6.91%.

On to `Cc1cc(C(=O)NCc2ccc(F)cc2)nc(C2CCCN2C)n1` (configuration not stated), for which the cytotoxicity at 70.5 h is -2.73%.

For `CN(C1CCN(c2ccccn2)CC1)S(=O)(=O)c1cccs1`, the cytotoxicity at 70.5 h was -8.7%.

In the case of `N#Cc1ccc(C(=O)N(C2CC2)C2CC(=O)NC2=O)cc1` (configuration not stated), the cytotoxicity at 70.5 h is -8.96%.

On to `COc1ccc(-n2nnnc2C(C)(C)Nc2ccc(C)cc2C)cc1`, for which the cytotoxicity at 70.5 h turned out to be 40.2%.

Regarding `CC(C)C(=O)N1CCCC1C(=O)Nc1ccc(F)c(F)c1` (configuration not stated), the cytotoxicity at 70.5 h is -14.3%.

On to `Cn1cnc2c1CCN(Cc1nc(Cc3ccccc3)no1)C2`, for which the cytotoxicity at 70.5 h is -3.21%.

With `NCc1cccc(-c2cccnc2C(=O)NCCN2CCCC2)c1`, the cytotoxicity at 70.5 h is -8.26%.

For `NC(=O)c1ccc(C(=O)N(Cc2ccc(O)cc2)CC2CC2)cc1`, the cytotoxicity at 70.5 h came out at 6.44%.

As for `CCn1ncc2c1CN(C(=O)c1cscn1)CC2COC` (configuration not stated), the cytotoxicity at 70.5 h was -7.98%.

Take `CN1CC(Nc2nc3c(cnn3C(C)(C)C)c(=O)[nH]2)CCC1=O` (configuration not stated): the cytotoxicity at 70.5 h was -2.42%.

On to `O=C(C1CCCO1)N1CCCC2(CCN(c3cccnc3)CC2)C1` (configuration not stated), for which the cytotoxicity at 70.5 h is -3.98%.

With `CC(C)(C)c1cccc(OCC(=O)NS(=O)(=O)c2cccnc2)c1`, the cytotoxicity at 70.5 h turned out to be 21.7%.

As for `C=C(C)Cn1nnc(C2(NC(=O)c3ccccc3)CCCC2)n1`, the cytotoxicity at 70.5 h was -8.81%.

`Cc1ccc(CN2CCC3(CC2)C(=O)N(CC(C)C)CCN3C)o1`: the cytotoxicity at 70.5 h is -10.1%.

For `CC(=O)Nc1ncc(S(=O)(=O)Nc2cccc(O)c2)s1`, the cytotoxicity at 70.5 h is -13.4%.

Consider `NCC(c1ccc(Cl)cc1)N1CCc2sccc2C1` (configuration not stated), for which the cytotoxicity at 70.5 h was 7.32%.

For `FC(F)(F)c1ccc(-c2n[nH]c3c2CN(CC2CCOC2)CC3)cc1` (configuration not stated), the cytotoxicity at 70.5 h was -15.3%.

On to `CSc1nccc(N2CCC3(CCCN(CCc4ccccc4)C3)C2)n1` (configuration not stated), for which the cytotoxicity at 70.5 h amounted to 6.79%.

`Cc1n[nH]c(C)c1C1COCCN1C(=O)c1cccc(F)c1F` (configuration not stated): the cytotoxicity at 70.5 h is -15.7%.

Take `Cc1ccc(C2CSCCN2C(=O)c2cccnc2)cc1` (configuration not stated): the cytotoxicity at 70.5 h was -9.38%.

With `COc1ccccc1CN1C(=O)O[C@@H]2CN(C(C)C)C[C@@H]21`, the cytotoxicity at 70.5 h was -0.224%.

Consider `CN(C)c1nccc(C2CN(c3ccccc3)CCO2)n1` (configuration not stated), for which the cytotoxicity at 70.5 h was -4.49%.

Take `Cc1ccc(CN(Cc2ccccn2)C(=O)[C@H]2CC[C@@H](N)C2)s1`: the cytotoxicity at 70.5 h was -10.2%.

For `CC(C)CN1Cc2c(C(=O)NC3CC3)ncn2-c2ccccc2S1(=O)=O`, the cytotoxicity at 70.5 h is -15.8%.

Take `O=C(NCc1ccc(F)cc1)NCC(O)(c1cccs1)C1CC1` (configuration not stated): the cytotoxicity at 70.5 h is -8.72%.

As to `CC(C)=Cc1c(-c2ccccc2)ncn1CCS(C)(=O)=O`, the cytotoxicity at 70.5 h was 7.25%.

On to `O=C1COC[C@H]([C@H](O)c2ccc(NC(=O)c3cccnc3)cc2)N1`, for which the cytotoxicity at 70.5 h was -5.64%.

In the case of `Cc1cc(CN(C)C(C(=O)O)c2ccc(C(C)(C)C)cc2)on1` (configuration not stated), the cytotoxicity at 70.5 h is -5.92%.

`Cc1nc(NC2CCN(C(=O)C3CC3)CC2)c2cnn(C)c2n1`: the cytotoxicity at 70.5 h was -11.5%.

For `O=C(c1ccoc1)N1CCCN(CC2CCOc3ccccc3C2)CC1` (configuration not stated), the cytotoxicity at 70.5 h was 18.3%.

In the case of `O=C(Nc1ccccc1)C1=NOC2(CCCN(C(=O)N3CCCC3)C2)C1` (configuration not stated), the cytotoxicity at 70.5 h was -0.586%.

On to `COc1ccc(CN2CCN(S(=O)(=O)c3cc(C(=O)O)cs3)CC2)cc1`, for which the cytotoxicity at 70.5 h is -18.9%.

As to `O=C(C1CCOCC1)N1CC[C@@H]2[C@H]1CCC(=O)N2c1ccccc1`, the cytotoxicity at 70.5 h was determined as 13.7%.

Turning to `COCCC1(CNC(=O)NCC2CCCN(C)C2)CCC1` (configuration not stated), the cytotoxicity at 70.5 h was -12%.

Turning to `CCc1nc(C)ncc1C(=O)N1CCOC(c2nc(C)n[nH]2)C1` (configuration not stated), the cytotoxicity at 70.5 h is -0.337%.

For `Cn1cccc1CN1CCC2(CC1)CC(Oc1cccnc1)C2`, the cytotoxicity at 70.5 h worked out at 6.62%.

With `Cc1ccc([C@@H]2CN(C(=O)c3ccoc3C)C[C@H]2NC(=O)C2CC2)cc1`, the cytotoxicity at 70.5 h is 30.5%.

As for `COc1ccc2c(ccn2CCC(=O)N[C@H](C(=O)O)C(C)C)c1`, the cytotoxicity at 70.5 h is -8.62%.

With `O=S(=O)(C1CC1)N1CCO[C@H]2[C@H](OCC3CCCC3)CC[C@@H]21`, the cytotoxicity at 70.5 h was determined as 1.94%.

In the case of `Cc1noc(C(C)C)c1C(=O)NCC(c1ccccc1)N(C)C` (configuration not stated), the cytotoxicity at 70.5 h is -8.37%.

Take `COCC(O)CN(C)C(=O)NC1CCN(Cc2ccccn2)CC1` (configuration not stated): the cytotoxicity at 70.5 h is -17.1%.

Regarding `Oc1cccc(-c2cc(C3CCN(Cc4cncnc4)C3)ccn2)c1` (configuration not stated), the cytotoxicity at 70.5 h is -3.45%.

For the molecule `CC(NC(=O)NCCCn1ccnc1)c1ccc2c(c1)CCC(=O)N2` (configuration not stated), the cytotoxicity at 70.5 h turned out to be 43.4%.

Regarding `O=C(N[C@@H]1CCN(C(=O)c2cc[nH]c2)C[C@H]1O)c1ccccn1`, the cytotoxicity at 70.5 h was -0.892%.

Take `CCc1cnc(N2CCN(Cc3ccon3)CC2)s1`: the cytotoxicity at 70.5 h is -6.28%.

Turning to `CCCc1nc(N2CC[C@@H](c3ccc4c(c3)OCO4)[C@H](O)C2)no1`, the cytotoxicity at 70.5 h is -9.08%.

As for `CN(C)C(=O)c1ccc(OC2CCOCC2)cc1`, the cytotoxicity at 70.5 h is -15.1%.

For `COc1ccc2c(ccn2CCC(=O)/N=c2\[nH]nc(C3CCCO3)s2)c1` (configuration not stated), the cytotoxicity at 70.5 h was -15.5%.

Turning to `Cc1noc(C)c1CN(Cc1ccccc1)C(C)CN1CCOCC1` (configuration not stated), the cytotoxicity at 70.5 h was -9.44%.

On to `COc1cccc(OCC(=O)N2CCOc3ccncc32)c1`, for which the cytotoxicity at 70.5 h was determined as 13.2%.

As for `COc1ccccc1CCN(C)C(=O)NC(C)c1nncn1C` (configuration not stated), the cytotoxicity at 70.5 h is -4.33%.

For `Cn1ccnc1CN1CCCC(Cc2ccccn2)C1` (configuration not stated), the cytotoxicity at 70.5 h is 34.7%.

Consider `CC(CN1CCCC1=O)NC(=O)c1cc(=O)[nH]c2ccc(Cl)cc12` (configuration not stated), for which the cytotoxicity at 70.5 h is -85.6%.

With `O=C(NCc1ccccc1CN1CCOCC1)c1ccc(Br)cc1F`, the cytotoxicity at 70.5 h worked out at 2.01%.

Turning to `Cc1nc(C)n(CC2CCCN2c2ncnc3sccc23)n1` (configuration not stated), the cytotoxicity at 70.5 h was -7.8%.

For `c1coc(CN2CCCn3c(CN4CCOCC4)nnc3C2)c1`, the cytotoxicity at 70.5 h amounted to 1.6%.

As for `Cc1cnc(N2CC[C@H]3[C@@H]2CCC(=O)N3c2cccnc2)nc1`, the cytotoxicity at 70.5 h is -2.59%.

Turning to `c1cc(N2CCC3(COCc4cnc(NCC5CC5)nc43)C2)ncn1` (configuration not stated), the cytotoxicity at 70.5 h was determined as 32.2%.

For `O[C@@H]1CN(c2nc3ccccc3s2)CC[C@H]1c1ccc2c(c1)OCO2`, the cytotoxicity at 70.5 h is -3.71%.

Regarding `Nc1nccnc1C(=O)NC1CCN(Cc2ccccc2)C1` (configuration not stated), the cytotoxicity at 70.5 h was -10.2%.

In the case of `COc1cccc(Cl)c1C(C(=O)O)N1CCC(O)(c2cccnc2)CC1` (configuration not stated), the cytotoxicity at 70.5 h was -3.34%.

Regarding `CCC[C@@H]1CN(Cc2c[nH]nc2-c2ccc(F)cc2)C[C@H]1NS(C)(=O)=O`, the cytotoxicity at 70.5 h is -3.18%.

In the case of `O=C(CN1CCc2ccccc2C1)NCc1cc2n(n1)CCCNC2`, the cytotoxicity at 70.5 h was -6.65%.

As for `CNC(=O)[C@@H]1CC[C@@H]2[C@@H](CCN2C(=O)N(C)C)O1`, the cytotoxicity at 70.5 h was -0.00257%.

In the case of `CCc1cccc(N2CCC(NC(=O)C3CCCO3)CC2)c1` (configuration not stated), the cytotoxicity at 70.5 h is -3.65%.

In the case of `CC(C)c1cc(C(=O)N2CCc3ccccc3C2C(=O)O)nn1C` (configuration not stated), the cytotoxicity at 70.5 h was -1.42%.

Turning to `Cn1ncnc1CNC(=O)N(CCCO)C1CCc2ccccc21` (configuration not stated), the cytotoxicity at 70.5 h is -6.34%.

`O=C(NCCc1nccs1)C(c1ccccc1)n1cnnn1` (configuration not stated): the cytotoxicity at 70.5 h is -4.94%.

`NC(=O)C1CN(Cc2c(O)ccc3oc4c(c23)CCCC4)CCO1` (configuration not stated): the cytotoxicity at 70.5 h was -5.87%.

Regarding `O=C(NCC(O)c1cccc(F)c1)C1CCN(C2CCCCC2)CC1` (configuration not stated), the cytotoxicity at 70.5 h was -16.4%.

The values are drawn from ChEMBL document CHEMBL3507680, “University of Dundee, Gates Library screen for HepG2 cell viability”.
